Measured values published in ChEMBL document CHEMBL2073979, “Molecular cloning and characterization of a new multispecific organic anion transporter from rat brain” (J Biol Chem, 1999).

Tests used:
[1] = target: T1, Organic anion transporter 3 (Rattus norvegicus, UniProt Q9R1U7); experiment: TP_TRANSPORTER: inhibition of E1S uptake (E1S: 40 uM, DIDS: 1000 uM) in Xenopus laevis oocytes; format: functional, cell-based; settings: oocyte
T1 sequence (Q9R1U7 whole entry): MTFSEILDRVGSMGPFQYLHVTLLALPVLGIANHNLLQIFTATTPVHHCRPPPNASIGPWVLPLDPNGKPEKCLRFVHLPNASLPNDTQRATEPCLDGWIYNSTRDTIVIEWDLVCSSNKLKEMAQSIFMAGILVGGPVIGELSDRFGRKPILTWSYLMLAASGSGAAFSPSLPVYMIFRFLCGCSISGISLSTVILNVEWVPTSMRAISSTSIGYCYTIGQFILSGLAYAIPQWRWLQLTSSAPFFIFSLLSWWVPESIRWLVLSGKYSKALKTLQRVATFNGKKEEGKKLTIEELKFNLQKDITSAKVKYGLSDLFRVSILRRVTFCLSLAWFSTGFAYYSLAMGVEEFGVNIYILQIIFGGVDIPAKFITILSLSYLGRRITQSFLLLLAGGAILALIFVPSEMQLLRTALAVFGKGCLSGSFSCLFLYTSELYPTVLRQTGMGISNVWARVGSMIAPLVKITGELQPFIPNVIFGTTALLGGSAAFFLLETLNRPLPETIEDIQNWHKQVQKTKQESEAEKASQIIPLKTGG

[2] = target: T2, Organic anion transporter 3 (OAT3) (Rattus norvegicus, UniProt Q9R1U7); experiment: (§1) TP_TRANSPORTER: uptake in Xenopus laevis oocytes; format: functional, cell-based, Oocyte
T2 sequence (Q9R1U7 whole entry): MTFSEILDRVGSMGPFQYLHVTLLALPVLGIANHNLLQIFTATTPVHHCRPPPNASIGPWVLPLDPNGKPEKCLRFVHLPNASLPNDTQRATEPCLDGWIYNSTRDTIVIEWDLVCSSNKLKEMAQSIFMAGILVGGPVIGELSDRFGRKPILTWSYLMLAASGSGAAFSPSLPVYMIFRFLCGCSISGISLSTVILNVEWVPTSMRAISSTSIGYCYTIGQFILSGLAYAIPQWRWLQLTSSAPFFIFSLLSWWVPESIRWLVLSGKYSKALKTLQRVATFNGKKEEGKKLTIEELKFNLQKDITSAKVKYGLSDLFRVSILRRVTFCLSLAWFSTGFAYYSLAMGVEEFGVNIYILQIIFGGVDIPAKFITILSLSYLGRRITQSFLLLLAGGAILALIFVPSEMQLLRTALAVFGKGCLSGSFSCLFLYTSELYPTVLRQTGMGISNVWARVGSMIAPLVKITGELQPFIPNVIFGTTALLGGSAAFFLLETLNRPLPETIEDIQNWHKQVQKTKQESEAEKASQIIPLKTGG

[3] = target: T1, Organic anion transporter 3; experiment: TP_TRANSPORTER: inhibition of E1S uptake (E1S: 40 uM, Bumetanide: 1000 uM) in Xenopus laevis oocytes; format: functional, cell-based; settings: oocyte
[4] = target: T1, Organic anion transporter 3; experiment: TP_TRANSPORTER: inhibition of E1S uptake (E1S: 40 uM, Cefoperazone: 1000 uM) in Xenopus laevis oocytes; format: functional, cell-based; settings: oocyte
[5] = target: T1, Organic anion transporter 3; experiment: as §1; format: functional, cell-based, Oocyte; settings: oocyte
[6] = target: T1, Organic anion transporter 3; experiment: TP_TRANSPORTER: inhibition of E1S uptake (E1S: 40 uM, Furosemide: 1000 uM) in Xenopus laevis oocytes; format: functional, cell-based; settings: oocyte
[7] = target: T1, Organic anion transporter 3; experiment: TP_TRANSPORTER: inhibition of E1S uptake (E1S: 40 uM, ICG: 1000 uM) in Xenopus laevis oocytes; format: functional, cell-based; settings: oocyte
[8] = target: T1, Organic anion transporter 3; experiment: TP_TRANSPORTER: inhibition of E1S uptake (E1S: 40 uM, Indomethacin: 1000 uM) in Xenopus laevis oocytes; format: functional, cell-based; settings: oocyte
[9] = target: T1, Organic anion transporter 3; experiment: TP_TRANSPORTER: inhibition of E1S uptake (E1S: 40 uM, Malatonin: 1000 uM) in Xenopus laevis oocytes; format: functional, cell-based; settings: oocyte
[10] = target: T1, Organic anion transporter 3; experiment: TP_TRANSPORTER: inhibition of E1S uptake (E1S: 40 uM, MTX: 1000 uM) in Xenopus laevis oocytes; format: functional, cell-based; settings: oocyte
[11] = target: T1, Organic anion transporter 3; experiment: TP_TRANSPORTER: inhibition of E1S uptake (E1S: 40 uM, Ouabain: 1000 uM) in Xenopus laevis oocytes; format: functional, cell-based; settings: oocyte
[12] = target: T1, Organic anion transporter 3; experiment: TP_TRANSPORTER: inhibition of E1S uptake (E1S: 40 uM, Piroxicam: 1000 uM) in Xenopus laevis oocytes; format: functional, cell-based; settings: oocyte
[13] = target: T1, Organic anion transporter 3; experiment: TP_TRANSPORTER: inhibition of E1S uptake (E1S: 40 uM, Probenecid: 1000 uM) in Xenopus laevis oocytes; format: functional, cell-based; settings: oocyte
[14] = target: T1, Organic anion transporter 3; experiment: TP_TRANSPORTER: inhibition of E1S uptake (E1S: 40 uM, BSP: 1000 uM) in Xenopus laevis oocytes; format: functional, cell-based; settings: oocyte
[15] = target: T1, Organic anion transporter 3; experiment: TP_TRANSPORTER: inhibition of E1S uptake (E1S: 40 uM, AZT: 1000 uM) in Xenopus laevis oocytes; format: functional, cell-based; settings: oocyte
[16] = substrate: Nc1ccc(C(=O)NCC(=O)O)cc1; experiment: as §1; format: functional, cell-based, Oocyte
[17] = substrate: C[C@]12CC[C@@H]3c4ccc(OS(=O)(=O)O)cc4CC[C@H]3[C@@H]1CCC2=O; experiment: as §1; format: functional, cell-based, Oocyte

## O=S(=O)(O)c1cc(N=C=S)ccc1/C=C/c1ccc(NC=S)cc1S(=O)(=O)O
[1]
  Activity: inhibitor [(at a rough estimate) 10 % of control]

## C[C@@H]1Cc2c(Cl)cc(C(=O)N[C@@H](Cc3ccccc3)C(=O)O)c(O)c2C(=O)O1 [3R14S-OCHRATOXIN A]
[2]
  Km: 0.739 µM

## CCCCNc1cc(C(=O)O)cc(S(N)(=O)=O)c1Oc1ccccc1 [BUMETANIDE]
[3]
  Activity: inhibitor [(at a rough estimate) 20 % of control]

## CCN1CCN(C(=O)N[C@@H](C(=O)N[C@@H]2C(=O)N3C(C(=O)O)=C(CSc4nnnn4C)CS[C@H]23)c2ccc(O)cc2)C(=O)C1=O [CEFOPERAZONE]
[4]
  Activity: inhibitor [(at a rough estimate) 40 % of control]

## CN/C(=N/CCSCc1nc[nH]c1C)NC#N [CIMETIDINE]
[5]
  Activity: substrate [+]

## NS(=O)(=O)c1cc(C(=O)O)c(NCc2ccco2)cc1Cl [FUROSEMIDE]
[6]
  Activity: inhibitor [(at a rough estimate) 10 % of control]

## CC1(C)C(/C=C/C=C/C=C/C=C2/N(CCCCS(=O)(=O)[O-])c3ccc4ccccc4c3C2(C)C)=[N+](CCCCS(=O)(=O)[O-])c2ccc3ccccc3c21.[Na+] [INDOCYANINE GREEN]
[7]
  Activity: inhibitor [(at a rough estimate) 20 % of control]

## COc1ccc2c(c1)c(CC(=O)O)c(C)n2C(=O)c1ccc(Cl)cc1 [INDOMETHACIN]
[8]
  Activity: is not an inhibitor [-]

## COc1ccc2[nH]cc(CCNC(C)=O)c2c1 [MELATONIN]
[9]
  Activity: inhibitor [(at a rough estimate) 10 % of control]

## CN(Cc1cnc2nc(N)nc(N)c2n1)c1ccc(C(=O)N[C@@H](CCC(=O)O)C(=O)O)cc1 [METHOTREXATE]
[10]
  Activity: inhibitor [(at a rough estimate) 35 % of control]

## C[C@@H]1O[C@@H](O[C@H]2C[C@@H](O)[C@]3(CO)[C@H]4[C@H](O)C[C@]5(C)[C@@H](C6=CC(=O)OC6)CC[C@]5(O)[C@@H]4CC[C@]3(O)C2)[C@H](O)[C@H](O)[C@H]1O [OUABAIN]
[11]
  Activity: is not an inhibitor [-]

## CN1C(C(=O)Nc2ccccn2)=C(O)c2ccccc2S1(=O)=O [PIROXICAM]
[12]
  Activity: inhibitor [(at a rough estimate) 10 % of control]

## CCCN(CCC)S(=O)(=O)c1ccc(C(=O)O)cc1 [PROBENECID]
[13]
  Activity: inhibitor [(at a rough estimate) 15 % of control]

## O=C1OC(c2ccc(O)c(S(=O)(=O)[O-])c2)(c2ccc(O)c(S(=O)(=O)[O-])c2)c2c(Br)c(Br)c(Br)c(Br)c21.[Na+].[Na+] [SULFOBROMOPHTHALEIN SODIUM]
[14]
  Activity: inhibitor [(at a rough estimate) 5 % of control]

## Cc1cn([C@H]2C[C@H](N=[N+]=[N-])[C@@H](CO)O2)c(=O)[nH]c1=O [ZIDOVUDINE]
[15]
  Activity: inhibitor [(at a rough estimate) 20 % of control]

B1: Organic anion transporter 3 (Rattus norvegicus) (protein)
chain: MTFSEILDRVGSMGPFQYLHVTLLALPVLGIANHNLLQIFTATTPVHHCRPPPNASIGPWVLPLDPNGKPEKCLRFVHLPNASLPNDTQRATEPCLDGWIYNSTRDTIVIEWDLVCSSNKLKEMAQSIFMAGILVGGPVIGELSDRFGRKPILTWSYLMLAASGSGAAFSPSLPVYMIFRFLCGCSISGISLSTVILNVEWVPTSMRAISSTSIGYCYTIGQFILSGLAYAIPQWRWLQLTSSAPFFIFSLLSWWVPESIRWLVLSGKYSKALKTLQRVATFNGKKEEGKKLTIEELKFNLQKDITSAKVKYGLSDLFRVSILRRVTFCLSLAWFSTGFAYYSLAMGVEEFGVNIYILQIIFGGVDIPAKFITILSLSYLGRRITQSFLLLLAGGAILALIFVPSEMQLLRTALAVFGKGCLSGSFSCLFLYTSELYPTVLRQTGMGISNVWARVGSMIAPLVKITGELQPFIPNVIFGTTALLGGSAAFFLLETLNRPLPETIEDIQNWHKQVQKTKQESEAEKASQIIPLKTGG
[16]
  Km: 64.7 µM
[17]
  Km: 2.34 µM
